Results reported in US9120749B2, “Quinoline derivatives and MELK inhibitors containing the same” (ONCOTHERAPY SCIENCE, INC., priority 2010, dated 2015).
Counter-ions that a name gives are not always drawn.

Tests used:
[1] = system: T47D cells; experiment: Cell-based assay: anti-proliferative activity, Cell Counting Kit-8, 72 hours (T47D); details: Homo sapiens, T47D, 72 h
Method in brief: (§1)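 Target-specific cytotoxicity: seeded cells treated with MELK inhibitor candidates for 72 h, proliferation quantified via CCK-8, IC50 fitted.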

[2] = system: A549 cells; experiment: Cell-based assay: anti-proliferative activity, Cell Counting Kit-8, 72 hours (A549); details: Homo sapiens, A549, 72 h
Method in brief: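 Cell Counting Kit-8 read-out of A549 growth after 72 hours of inhibitor exposure, cells plated in 96-well format. Values reported as IC50.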

[3] = system: HT-1197 cells; experiment: Cell-based assay: anti-proliferative activity, Cell Counting Kit-8, 72 hours (HT-1197, negative control without MELK expression); details: Homo sapiens, HT1197, 72 h
Method in brief: as §1

[4] = system: DU4475; experiment: Cell-based assay: anti-proliferative activity, Cell Counting Kit-8, 72 hours (DU4475); details: Homo sapiens, DU-4475, DU4475 cells
[5] = target: MELK (Homo sapiens, UniProt Q14680); experiment: Kinase assay: MELK activity, phosphorylation of FITC-labeled histone H3 peptide measured by IMAP fluorescence polarization; assay type: biochemical; details: 50 micro-M ATP, FITC-labeled histone H3 peptide substrate, IMAP fluorescence polarization; read-out: IC50 (μM) (kinase assay)
Method in brief: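 Polarization of fluorescence served as the signal for MELK turnover of FITC-conjugated histone H3 peptide. Binding solution quenched each reaction, and plates stood 0.5 hour at room temperature before reading.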

[6] = system: BT-549 cells; experiment: Cell-based assay: anti-proliferative activity, Cell Counting Kit-8, 72 hours (BT-549); details: Homo sapiens, BT-549, 72 h, BT549 cells, MELK-expressing; Cell Counting Kit-8 at 72 hours
Method in brief: as §1

[7] = HT1197 cells (negative control, no MELK expression), 72 hours
[8] = MELK-expressing, Cell Counting Kit-8 at 72 hours
[9] = HT1197 cells, no MELK expression (negative control), Cell Counting Kit-8 at 72 hours

Chain of MELK (Q14680 whole entry, looked up): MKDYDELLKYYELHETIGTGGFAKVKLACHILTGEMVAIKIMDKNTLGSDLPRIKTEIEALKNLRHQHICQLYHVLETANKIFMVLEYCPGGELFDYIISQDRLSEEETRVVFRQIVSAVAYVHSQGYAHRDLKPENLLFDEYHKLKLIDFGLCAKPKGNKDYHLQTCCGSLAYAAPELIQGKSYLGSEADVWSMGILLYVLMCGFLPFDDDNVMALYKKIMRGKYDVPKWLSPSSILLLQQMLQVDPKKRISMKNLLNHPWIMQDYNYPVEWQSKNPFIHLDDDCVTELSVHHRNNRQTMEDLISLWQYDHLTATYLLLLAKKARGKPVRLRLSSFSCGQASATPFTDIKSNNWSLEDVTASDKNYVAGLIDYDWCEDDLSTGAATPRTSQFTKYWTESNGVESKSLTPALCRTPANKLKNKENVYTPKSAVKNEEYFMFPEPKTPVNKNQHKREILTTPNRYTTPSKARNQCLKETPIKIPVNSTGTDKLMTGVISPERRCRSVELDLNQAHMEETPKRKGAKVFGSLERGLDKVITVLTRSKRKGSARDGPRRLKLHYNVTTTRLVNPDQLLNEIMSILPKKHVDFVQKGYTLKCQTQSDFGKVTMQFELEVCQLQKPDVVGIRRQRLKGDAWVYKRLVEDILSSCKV

Compound | IC50 [1] | IC50 ([2]; 72 hours) | IC50 [3, 7] | IC50 [4] | IC50 [5] | IC50 [6] | IC50 [1, 8] | IC50 [2, 8] | IC50 [3, 9]
N#Cc1ncc(-c2ccc3ncc(C(=O)C4CC4)c(Nc4ccc(CN)cc4)c3c2)cn1 [Example 509, 5-(4-(4-(aminomethyl)phenylamino)-3-(cyclopropanecarbonyl)quinolin-6-yl)pyrimidine-2-carbonitrile] | 0.19 µM | 0.79 µM | 0.95 µM | 0.6 µM | – | – | – | – | –
CN1CCN(Cc2ccc(-c3c(C(=O)C4CC4)cnc4ccc(-c5cc(Cl)c(O)c(Cl)c5)cc34)cc2)CC1 [Example 482, cyclopropyl(6-(3,5-dichloro-4-hydroxyphenyl)-4-(4-((4-methylpiperazin-1-yl)methyl)phenyl)quinolin-3-yl)methanone] | 0.54 µM | 0.96 µM | 3.1 µM | 0.9 µM | – | – | – | – | –
COc1cc(-c2ccc3ncc([S+](C)[O-])c(N[C@H]4CC[C@H](N)CC4)c3c2)cc(Cl)c1O (some centres unmarked) [Example 500] | 1.6 µM | 4.5 µM | 13 µM | 1.8 µM | – | – | – | – | –
COc1cc(-c2ccc3ncc(C#N)c(N[C@H]4CC[C@H](N(C)C)CC4)c3c2)cc(Cl)c1O [Example 447] | 0.15 µM | 0.4 µM | 2 µM | 0.076 µM | – | – | – | – | –
O=C(c1cnc2ccc(-c3cc(Cl)c(O)c(Cl)c3)cc2c1Nc1ccc(CN2CCOCC2)cc1)C1CC1 [Example 463] | 0.52 µM | 0.43 µM | 3.6 µM | 0.26 µM | – | – | – | – | –
COc1cc(-c2ccc3ncc(C(C)=O)c(N[C@H]4CC[C@H](N)CC4)c3c2)cc(Cl)c1O [Example 259, 1-{4-[trans-4-Aminocyclohexylamino]-6-(3-chloro-4-hydroxy-5-methoxyphenyl)quinolin-3-yl}ethanone] | – | – | – | – | 0.0024 µM | 0.43 µM | 0.057 µM | 0.099 µM | 2.5 µM
CN1CCN(C2CCN(c3c(C(=O)C4CC4)cnc4ccc(-c5ccc(O)c(Cl)c5)cc34)CC2)CC1 [Example 350, {6-(3-Chloro-4-hydroxyphenyl)-4-[4-(4-methylpiperazin-1-yl)piperidin-1-yl]quinolin-3-yl}(cyclopropyl)methanone] | – | – | – | – | 0.005 µM | 0.98 µM | 0.26 µM | 0.44 µM | 2.5 µM
N[C@H]1CC[C@@H](Nc2c(C(=O)C3CC3)cnc3ccc(-c4cc(F)c(O)c(F)c4)cc23)CC1 [Example 180, [4-(cis-4-Aminocyclohexylamino)-6-(3,5-difluoro-4-hydroxyphenyl)quinolin-3-yl](cyclopropyl)methanone] | – | – | – | – | 0.0026 µM | 0.3 µM | 0.17 µM | 0.9 µM | 4.5 µM
N[C@H]1CC[C@H](Nc2c(C(=O)C3CC3)cnc3ccc(-c4ccncc4)cc23)CC1 [Example 212, {4-[trans-4-Aminocyclohexylamino]-6-(pyridin-4-yl)quinolin-3-yl}(cyclopropyl)methanone] | – | – | – | – | 0.054 µM | 2.5 µM | 2.7 µM | 0.99 µM | 7.2 µM
CN(C)CC1CCN(c2c(C(=O)C3CC3)cnc3ccc(-c4cc(F)c(O)c(Cl)c4)cc23)CC1 [Example 347, [6-(3-Chloro-5-fluoro-4-hydroxyphenyl)-4-{4-[(dimethylamino)methyl]piperidin-1-yl}quinolin-3-yl](cyclopropyl)methanone] | – | – | – | – | 0.0024 µM | 0.62 µM | 0.42 µM | 0.48 µM | 1.8 µM
CC(C1CCN(c2c(C(=O)C3CC3)cnc3ccc(-c4cc(F)c(O)c(F)c4)cc23)CC1)N(C)C (centres unmarked) [Example 181, Cyclopropyl[6-(3,5-difluoro-4-hydroxyphenyl)-4-{4-[1-(dimethylamino)ethyl]piperidin-1-yl}quinolin-3-yl]methanone] | – | – | – | – | 0.011 µM | 0.73 µM | 0.47 µM | 0.7 µM | 1.1 µM
CN(C)[C@H]1CC[C@H](CNc2c(C(=O)C3CC3)cnc3ccc(-c4cc(Cl)c(O)c(Cl)c4)cc23)CC1 [Example 325, Cyclopropyl[6-(3,5-dichloro-4-hydroxyphenyl)-4-{[trans-4-(dimethylamino)cyclohexyl]methylamino}quinolin-3-yl]methanone] | – | – | – | – | 0.011 µM | 1.9 µM | 0.78 µM | 0.62 µM | 10 µM
COc1cc(-c2ccc3ncc(C(=O)C4CC4)c(NC4CCN(C)CC4)c3c2)ccc1O [Example 177, Cyclopropyl[6-(4-hydroxy-3-methoxyphenyl)-4-(1-methylpiperidin-4-ylamino)quinolin-3-yl]methanone] | – | – | – | – | 0.026 µM | 2.6 µM | 0.88 µM | 0.83 µM | 2.3 µM
CN(C)CC1CCN(c2c(C(=O)C3CC3)cnc3ccc(-c4ccc(O)c(Cl)c4)cc23)CC1 [Example 279, [6-(3-Chloro-4-hydroxyphenyl)-4-{4-[(dimethylamino)methyl]piperidin-1-yl}quinolin-3-yl](cyclopropyl)methanone] | – | – | – | – | 0.0046 µM | 0.86 µM | 0.21 µM | 0.3 µM | 6.7 µM
CN1CCC(CNc2c(C(=O)C3CC3)cnc3ccc(-c4cc(F)c(O)c(Cl)c4)cc23)CC1 [Example 270, {6-(3-Chloro-5-fluoro-4-hydroxyphenyl)-4-[(1-methylpiperidin-4-yl)methylamino]quinolin-3-yl}(cyclopropyl)methanone] | – | – | – | – | 0.021 µM | 1.1 µM | 0.51 µM | 0.69 µM | 2.9 µM
N#Cc1ccc(-c2ccc3ncc(C(=O)C4CC4)c(N[C@H]4CC[C@H](N)CC4)c3c2)s1 [Example 119, 5-{4-[trans-4-Aminocyclohexylamino]-3-(cyclopropanecarbonyl)quinolin-6-yl}thiophene-2-carbonitrile] | – | – | – | – | 0.046 µM | 14 µM | 8.8 µM | 5.4 µM | 8 µM
N[C@H]1CC[C@H](Nc2c(C(=O)C3CC3)cnc3ccc(-c4ccc5[nH]cnc5c4)cc23)CC1 [Example 116, {4-[trans-4-Aminocyclohexylamino]-6-(1H-benzo[d]imidazol-5-yl)quinolin-3-yl}(cyclopropyl)methanone] | – | – | – | – | 0.018 µM | 5.7 µM | 1.8 µM | 13 µM | 15 µM
COc1cc(-c2ccc3ncc(C(=O)CC(C)C)c(N[C@H]4CC[C@H](N)CC4)c3c2)cc(Cl)c1O [Example 262, dihydrochloride] | – | – | – | – | 0.005 µM | 0.91 µM | 0.13 µM | 0.36 µM | 2.2 µM
CCN(CC)C1CCC(Nc2c(C(C)=O)cnc3ccc(-c4cc(Cl)c(O)c(OC)c4)cc23)CC1 (centres unmarked) [Example 303, 1-{6-(3-Chloro-4-hydroxy-5-methoxyphenyl)-4-[4-(diethylamino)cyclohexylamino]quinolin-3-yl}ethanone] | – | – | – | – | 0.0061 µM | 1.7 µM | 0.39 µM | 0.35 µM | 7.4 µM
O=C(c1cnc2ccc(-c3ccc(O)c(Cl)c3)cc2c1N1CCC(CN2CCOCC2)CC1)C1CC1 [Example 332, {6-(3-Chloro-4-hydroxyphenyl)-4-[4-(morpholinomethyl)piperidin-1-yl]quinolin-3-yl}(cyclopropyl)methanone] | – | – | – | – | 0.035 µM | 1.5 µM | 0.67 µM | 0.55 µM | 10 µM
